# Marks after values point to notes of the source that are not given here.
# Experiments:
# [1] = test system: Neonatal rat cardiomyocytes; assay: Screening purified venom fractions for rat cardiomyocyte toxicity (resazurin); assay type: cell-based
# Experimental: (§1) Hearts were collected from euthanised 1-2-day old neonatal rat pups and transferred into filter sterilised ice-cold Hanks balanced salt solution (HBSS) containing 2% Pen-strep. Hearts were washed in the HBSS, any non-heart tissue removed and then cut into 1-3 mm pieces and placed in 40 ml filter sterilised, ice cold 0.1% trypsin/HBSS. The heart pieces in trypsin were place in a large ice bucket and incubated overnight at 4° C. on a rocker with gentle agitation to allow the tissue to digest.
# The following day, all trypsin was aspirated from the tissue and the tissue transferred evenly into 2 ml Eppendorf tubes. The tissue was then digested further using a 37° C. 1 mg/ml collagenase/HBSS (filter sterilised) solution. […]
# (§2) Neonatal rat cardiomyocytes and cardiac fibroblasts were treated with purified venom fractions suspected of being cardiotoxins at doses of 12.5, 7.5, 6 μg/ml, with rat cardiomyocytes being treated at additional concentrations of 3.5, 2.5, 1 and 0.5 μg/ml for 2 hs in a humidified incubator at 37° C., 5% CO2. […] The change in fluorescence of the resazurin dye was monitored over a 5 h timeframe using a BMG Fluostar plate reader. Percent inhibition of both cell types in response to each fraction at each dose were calculated and plotted graphically.
# [2] = test system: rat neonatal cardiomyocyte cells; assay type: cell-based; settings: 6 μg/ml, rat cardiomyocytes
# Experimental: Thermal stability of the six lead fractions was investigated. Aliquots of each fraction were heated in a heat block to 37° C. (unheated), 60° C., 80° C. and 100° C. before being used to treat rat neonatal cardiomyocyte cells at a dose of 6 μg/ml. Cardiomyocyte toxicity was assessed after 24 hrs of dosing at each temperature against a similar aliquot of each fraction that had been unheated before dosing. After 24 h, 160 μM Resazurin dye was added to all cells and the change in cardiomyocyte cell viability/metabolism monitored every hour up to 5 h post dye addition. An additional measurement was recorded 24 hs after the dye had been added.
# [3] = test system: neonatal rat cardiac fibroblast cells; assay: Screening purified venom fractions for rat cardiac fibroblast toxicity (resazurin); assay type: cell-based
# Experimental: as §1
# The following day, all trypsin was aspirated from the tissue and the tissue transferred evenly into 2 ml Eppendorf tubes. The tissue was then digested further using a 37° C. 1 mg/ml collagenase/HBSS (filter sterilised) solution. For each collagenase digestion, 2 ml of enzyme buffer was added to all Eppendorf tubes and the tubes incubated in a 37° C. heating block for 2 mins with 400 rpm agitation. The supernatant from the first two digestions was discarded. After each of the following digestion steps, the tissue was gently triturated using a pipette to release cells. Once trituration was complete the supernatant was retained, added to a tube containing 10 ml cell culture media and stored on ice.
# All cell containing supernatants were filtered through a 250 μm cell strainer to remove any potentially undigested tissue and myocytes separated from cardiac fibroblast by spinning the supernatant at 1800 g for 45 mins through a Percoll gradient. […]
# as §2
# [4] = test system: Neonatal rat cardiomyocytes; assay: Screening purified venom fractions for alterations to cardiomyocyte beat rates; assay type: cell-based; settings: for Highest Achieved Fold Increases in Beat Rate: 1 h; for fold increases to beat rate: dose of 6 μg/ml
# Experimental: Neonatal rat cardiomyocytes were isolated as via standard protocol and seeded at a density of 100,000 cells/96 well. Once myocyte cultures were beating spontaneously in uniform sheets, they were videoed well-by-well using a microscope camera to determine pre-dose beat rates/min. […] Cells were incubated in each fraction in a humidified incubator at 37° C., 5% CO2 for 1 h. After 1 h videos of the cells were re-recorded to obtain the post-dosing beat rate/minute. Fold changes in beat frequency were calculated for each dosed well pair.
# [5] = dogs; study of 2020 (Seljetun et al); cited from earlier work
# [6] = test system: Human IPSC-derived cardiomyocytes; assay: Six lead fractions: toxicity to human IPSC-derived cardiomyocytes (resazurin); assay type: cell-based; settings: for cytotoxicity against human IPSC-derived cardiomyocytes: 7.5, 6, 3.5, 2.5 and 1 μg/ml, 2 h, FIG. 3
# Experimental: Human IPSC-derived cardiomyocytes were purchased from Axol Biosciences and cultured as via their standard methodology. Briefly, cells were recovered from liquid nitrogen storage when required and the cells transferred dropwise into 10 ml of pre-warmed (37° C.) plating media (cardiomyocyte maintenance media+10% FCS+10 μM ROCK inhibitor). Cells were centrifuged at 200×g for 5 mins at room temperature. The supernatant was aspirated from the cell pellet and the cell pellet gently resuspended in 1 ml plating media. Cells were counted using a haemocytometer and trypan blue staining. Cells were plated at a seeding density of 10-20,000 cells/well in fibronectin pre-coated 384 well plates. Cells were incubated at 37° C., 5% CO2 in a humidified incubator overnight before the plating media was removed the following day and replace with fresh maintenance media (No FCS, no ROCK inhibitor). Partial media changes were performed every 2-days until cells formed a single continuous sheet of spontaneously beating cardiomyocytes (7-10 day in culture).
# Once beating spontaneously, cells were treated with the six lead fractions diluted in maintenance media to final working concentrations of 7.5, 6, 3.5, 2.5 and 1 μg/ml. 30 μl of each fraction dilution was added to triplicate wells of cells and incubated for 2 h at 37° C., 5% CO2 in a humidified incubator. After 2 h, resazurin dye at a final working concentration of 160 μM were added to all wells and the change in fluorescence of the plate monitored over a 5 h timeframe using a BMG Labtech Fluostar plate reader. Percent toxicity was calculated from triplicate wells at each dose and plotted graphically.
# Human IPSC derived cardiomyocytes were dosed in triplicate with a serial dilution of each of the six venom fractions (7.5, 6, 3.5, 2.5 and 1 μg/ml) for 2 hs at 37° C., 5% CO2 before resazurin dye was added and the change in colour and fluorescence monitored for the following 5 hrs. Percentage toxicity was calculated for each fraction at all doses and plotted graphically (FIG. 3).
# Caco-2 cells = assay: Caco-2 permeability assay (bi-directional); settings: positive control
# Experimental: Cells were seeded on to Millipore Multiscreen Transwell plates at 1×10^5 cells/cm^2. The cells were cultured in DMEM and media was changed every two or three days. On day 20, the permeability study was performed. […] On the day of the assay, the monolayers were prepared by rinsing both basolateral and apical surfaces twice with Hanks Balanced Salt Solution (HBSS) at the desired pH warmed to 37° C. Cells were then incubated with HBSS at the desired pH in both apical and basolateral compartments for 40 min to stabilise physiological parameters.
# The fluorescent integrity marker lucifer yellow was also included in the dosing solution. Analytical standards were prepared from test compound water dilutions and transferred to buffer, maintaining a ≤1% v/v water concentration. Assay buffer was composed of supplemented HBSS pH 7.4.
# For assessment of apical to basolateral (A2B) permeability, HBSS was removed from the apical compartment and replaced with test compound dosing solution. The apical compartment insert was then placed into a companion plate containing fresh buffer (containing ≤1% v/v Water). For assessment of B2A permeability, HBSS was removed from the companion plate and replaced with test compound dosing solution. Fresh buffer (containing ≤1% v/v Water) was added to the apical compartment insert, which was then placed into the companion plate.
# At 120 min, the apical compartment inserts and the companion plates were separated, and apical and basolateral samples diluted for analysis. Test compound permeability was assessed in duplicate. Compounds of known permeability characteristics were run as controls on each assay plate.
# Test and control compounds were quantified by LC-MS/MS cassette analysis using a 7-point calibration with appropriate dilution of the samples. Cyprotex generic analytical conditions were used. The starting concentration (CO) was determined from the dosing solution and the experimental recovery calculated from CO and both apical and basolateral compartment concentrations.
# The integrity of the polarised cell monolayers throughout the experiment was checked by monitoring lucifer yellow permeation using fluorometric analysis. Permeation of this paracellular marker is low if monolayers have not been damaged. […] If this was not the case, then the result from the affected monolayer was excluded.
# The determined concentration (nM≡pmol/mL) of each test sample receiver well is multiplied by the volume of the receiver compartment (apical=0.09 mL, basolateral=0.210 mL) to calculate the amount (pmol) of probe substrate permeating the monolayer.
# Where dQ/dt is the rate of permeation of the drug across the cells, C0 is the donor compartment concentration at time zero and A is the area of the cell monolayer. C0 was obtained from analysis of the dosing solution.
# An efflux ratio (ER) was calculated from mean A to B and B to A data. This is derived from:
# Percentage recovery (mass balance) of the test compound or positive control substrate was calculated by dividing the sum of the amount (pmol) in the receiver and donor compartments post-incubation by the amount in the initial donor solution at time zero (C0) and expressing as a percentage.
# The insert was inserted into the well of a plate to form an Apical chamber (above cells) and basolateral chamber (below cells), with a permeable membrane between the two layers. Compound was then added to either the apical or basolateral chamber and the passage of it monitored into the other chamber. Transfer of the test compound from the apical to basolateral chamber was indicative of cellular uptake, simulating transition of the compound from the intestinal lumen to the bloodstream by uptake receptors (Direction A). […] An Efflux ratio was then calculated from the values obtained for A2B and B2A transmission.
# [7] = any of the tested doses, up to 12.5 μg/ml
compound,measurement,setting,value
N.naj_I25_R3 (LKCNKLVPLFYKTCPAGKDLCYKMYMVATPKVPVKRGCIDVCPKSSLLVKYVCCNTDRCN),doses showing rat cardiomyocyte toxicity,[1]; neonatal rat cardiomyocytes,≥ 6 µg/mL
same,thermal stability (change in cytotoxic activity after heating),"[2]; 37, 60, 80, 100° C., FIG. 4",no significant changes in the activity
same,doses showing cardiac fibroblast toxicity,[3]; neonatal rat cardiac fibroblasts,12.5 µg/mL
same,Highest Achieved Fold Increases in Beat Rate,[4]; Dose 3.5 μg/ml,13.75 fold
same,fold increases to beat rate,[4],greater than 8.5 fold
"O=c1oc2ccccc2c(O)c1C1CC(c2ccc(-c3ccc(Br)cc3)cc2)Cc2ccccc21 (stereo not shown) [Brodifacoum, 3-[3-(4′-bromobiphenyl-4-yl)-1,2,3,4-tetrahydronaphth-1-yl]-4-hydroxycoumarin]",time present in dog faeces after a single ingestion,[5],more than 700 days
N.aan_I15_R4 (LKCHKLVPPVWKTCPEGKNLCYKMFMVSTSTVPVKRGCIDVCPKDSALVKYVCCSTDKCN),toxicity to rat cardiomyocytes (in words),[1]; [7],no visibly or detectible toxicity
same,reduction of cardiomyocyte toxicity after heating,"[2]; fraction heated at 100° C. vs 37° C., 24 h",~10%
same,toxicity to cardiac fibroblasts (in words),[3]; [7],no visibly or detectible toxicity
same,cytotoxicity against human IPSC-derived cardiomyocytes,[6],no observable cardiomyocyte cellular toxicity
same,cytotoxicity against human IPSC-derived cardiomyocytes,[6]; listed as N.ann_I15_R4,low levels of cytotoxicity
same,Highest Achieved Fold Increases in Beat Rate,[4]; Dose 6 μg/ml,3.50 fold
same,fold increases to beat rate,[4],greater than 3.5 fold
"C[C@]12CC[C@@H]3c4ccc(OS(=O)(=O)O)cc4CC[C@H]3[C@@H]1CCC2=O [Estrone 3-sulfate, estrone 3-sulfate]",Mean % Recovery,Caco-2 cells; A2B,68.6%
same,Papp Mean,"Caco-2 cells; A2B, 120 min, pH 7.4",0.225 ×10^−6 cms^−1
same,Papp Rep 1,"Caco-2 cells; A2B, 120 min, pH 7.4",0.225 ×10^−6 cms^−1
same,Mean % Recovery,Caco-2 cells; B2A,85.7%
same,Papp Mean,"Caco-2 cells; B2A, 120 min, pH 7.4",34.9 ×10^−6 cms^−1
same,Papp Rep 1,"Caco-2 cells; B2A, 120 min, pH 7.4",33.1 ×10^−6 cms^−1
same,Papp Rep 2,"Caco-2 cells; B2A, 120 min, pH 7.4",36.6 ×10^−6 cms^−1
same,ER (efflux ratio),Caco-2 cells; from mean A to B and B to A data,155 ^b
N.atr_I28_R3 (LKCNKLVPLFYKTCPAGKNLCYKMFMVSNLTVPVKRGCIDVCPKSSLLVKYVCCNTDRCN),toxicity in human IPSC-derived cells compared to rodent cardiomyocytes,[6]; 3.5 μg/ml,reduction in toxicity
same,Highest Achieved Fold Increases in Beat Rate,[4]; Dose 6 μg/ml,5.35 fold
same,fold increases to beat rate,[4],greater than 5 fold
"O=c1oc2ccccc2c(O)c1C1CC(c2ccc(-c3ccccc3)cc2)Cc2ccccc21 (stereo not shown) [Difenacoum, 3-[3-p-diphenyl-1,2,3,4-hydronaphth-1-yl]-4-hydroxycoumarin]",time present in dog faeces after a single ingestion,[5],> 650 days

# — US20250204535A1, “Rodenticide” (priority 2022, published 2025)
